ChEMBL document CHEMBL5465560, “Selectivity Literature for EUbOPEN Chemogenomic Library” (2024)

Assays:
Cannabinoid receptor 1 = Cannabinoid receptor 1 (Homo sapiens, UniProt P21554); assay: Selectivity interaction (Cannabinoid CB1 calcium flux assay, agonist and antagonist mode ) EUB0000877a CNR1
[1] = biological target: T1, Mitogen-activated protein kinase 12 (Homo sapiens) (UniProt P53778); assay: Selectivity interaction (Millipore kinase profiler) EUB0000124b MAPK12; details: at 10 µM
T1 sequence (whole entry): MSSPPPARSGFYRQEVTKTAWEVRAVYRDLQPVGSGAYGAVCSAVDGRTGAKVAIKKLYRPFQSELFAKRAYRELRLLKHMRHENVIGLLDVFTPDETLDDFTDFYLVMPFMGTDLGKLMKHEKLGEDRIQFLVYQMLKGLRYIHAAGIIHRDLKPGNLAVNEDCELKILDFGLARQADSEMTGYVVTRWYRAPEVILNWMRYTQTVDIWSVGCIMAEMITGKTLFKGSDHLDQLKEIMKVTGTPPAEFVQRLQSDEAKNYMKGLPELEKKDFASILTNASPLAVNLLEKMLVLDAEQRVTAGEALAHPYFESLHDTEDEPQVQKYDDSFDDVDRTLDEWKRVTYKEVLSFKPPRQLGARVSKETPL

[2] = biological target: Serine/threonine-protein kinase PLK1 (Homo sapiens, UniProt P53350); assay: Selectivity interaction (Kinase panel (Z-LYTE Assay)) EUB0001632a PLK1; details: at 10 µM
[3] = biological target: T2, Serine/threonine-protein kinase Sgk3 (Homo sapiens) (UniProt Q96BR1); assay: Selectivity interaction (ActivX KiNativ screen (kinase selectivity in THP-1 cell lysates)) EUB0000639a SGK3; format: subcellular; details: lysate, at 0.01 µM
T2 sequence (whole entry): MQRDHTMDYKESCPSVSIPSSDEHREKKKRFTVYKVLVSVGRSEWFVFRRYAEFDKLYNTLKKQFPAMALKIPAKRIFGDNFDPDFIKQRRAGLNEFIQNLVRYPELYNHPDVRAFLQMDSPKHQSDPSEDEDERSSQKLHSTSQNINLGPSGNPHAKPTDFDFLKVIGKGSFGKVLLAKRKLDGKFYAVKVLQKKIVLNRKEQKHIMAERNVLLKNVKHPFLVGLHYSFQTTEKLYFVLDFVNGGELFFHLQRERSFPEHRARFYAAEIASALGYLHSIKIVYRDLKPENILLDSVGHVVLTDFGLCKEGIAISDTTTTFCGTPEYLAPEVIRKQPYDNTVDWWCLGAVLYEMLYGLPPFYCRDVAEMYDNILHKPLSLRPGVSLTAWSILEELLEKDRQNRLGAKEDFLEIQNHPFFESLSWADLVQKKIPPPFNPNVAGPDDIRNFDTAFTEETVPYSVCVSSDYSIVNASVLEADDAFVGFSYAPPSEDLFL

[4] = biological target: T3, MAP/microtubule affinity-regulating kinase 4 (Homo sapiens) (UniProt Q96L34); assay: Selectivity interaction (ActivX KiNativ screen (kinase selectivity in THP-1 cell lysates)) EUB0000639a MARK4; format: subcellular; details: lysate, at 0.04 µM
T3 sequence (whole entry): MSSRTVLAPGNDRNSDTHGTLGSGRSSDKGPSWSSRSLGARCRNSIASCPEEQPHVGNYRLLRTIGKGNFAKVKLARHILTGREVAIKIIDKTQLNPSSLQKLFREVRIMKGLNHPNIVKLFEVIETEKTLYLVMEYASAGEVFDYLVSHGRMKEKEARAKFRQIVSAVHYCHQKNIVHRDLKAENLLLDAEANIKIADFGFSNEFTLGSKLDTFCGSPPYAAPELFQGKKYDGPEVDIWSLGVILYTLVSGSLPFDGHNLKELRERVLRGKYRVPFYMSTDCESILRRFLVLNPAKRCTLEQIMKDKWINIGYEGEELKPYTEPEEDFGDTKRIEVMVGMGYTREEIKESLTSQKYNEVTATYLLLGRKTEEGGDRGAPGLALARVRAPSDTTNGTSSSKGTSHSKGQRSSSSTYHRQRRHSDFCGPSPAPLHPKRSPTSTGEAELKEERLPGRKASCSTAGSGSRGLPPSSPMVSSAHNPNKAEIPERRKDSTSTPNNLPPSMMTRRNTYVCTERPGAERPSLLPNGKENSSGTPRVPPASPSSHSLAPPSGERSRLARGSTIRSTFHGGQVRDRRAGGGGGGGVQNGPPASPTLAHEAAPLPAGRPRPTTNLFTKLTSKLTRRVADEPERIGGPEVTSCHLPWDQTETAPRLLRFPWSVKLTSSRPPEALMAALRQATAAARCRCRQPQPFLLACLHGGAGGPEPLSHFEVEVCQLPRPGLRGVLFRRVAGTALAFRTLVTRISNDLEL

[5] = biological target: Calcium/calmodulin-dependent protein kinase type II subunit beta (Homo sapiens) (UniProt Q13554); assay: Selectivity interaction (SelectScreen profiling (Invitrogen)) EUB0000607a CAMK2B; details: at 2 µM
[6] = biological target: T4, Mitogen-activated protein kinase kinase kinase 3 (Homo sapiens) (UniProt Q99759); assay: Selectivity interaction (KinomeScan (DiscoverX)) EUB0000045b MAP3K3
T4 sequence (whole entry): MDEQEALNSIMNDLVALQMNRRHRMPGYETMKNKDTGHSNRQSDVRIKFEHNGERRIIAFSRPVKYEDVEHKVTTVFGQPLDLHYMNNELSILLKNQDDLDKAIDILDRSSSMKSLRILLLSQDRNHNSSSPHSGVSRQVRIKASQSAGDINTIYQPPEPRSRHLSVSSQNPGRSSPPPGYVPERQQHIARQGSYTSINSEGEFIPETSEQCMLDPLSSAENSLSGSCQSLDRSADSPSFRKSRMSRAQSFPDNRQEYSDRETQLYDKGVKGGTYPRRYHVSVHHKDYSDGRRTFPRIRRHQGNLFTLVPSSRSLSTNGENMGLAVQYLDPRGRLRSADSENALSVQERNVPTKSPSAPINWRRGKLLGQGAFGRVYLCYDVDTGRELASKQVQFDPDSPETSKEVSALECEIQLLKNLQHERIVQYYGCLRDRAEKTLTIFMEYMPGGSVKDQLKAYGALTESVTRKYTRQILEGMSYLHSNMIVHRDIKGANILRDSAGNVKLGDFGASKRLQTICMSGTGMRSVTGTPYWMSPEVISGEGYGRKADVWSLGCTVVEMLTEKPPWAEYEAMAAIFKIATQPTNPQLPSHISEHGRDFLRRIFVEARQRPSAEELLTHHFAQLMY

Sequence of Calcium/calmodulin-dependent protein kinase type II subunit beta (Homo sapiens) (Q13554 whole entry): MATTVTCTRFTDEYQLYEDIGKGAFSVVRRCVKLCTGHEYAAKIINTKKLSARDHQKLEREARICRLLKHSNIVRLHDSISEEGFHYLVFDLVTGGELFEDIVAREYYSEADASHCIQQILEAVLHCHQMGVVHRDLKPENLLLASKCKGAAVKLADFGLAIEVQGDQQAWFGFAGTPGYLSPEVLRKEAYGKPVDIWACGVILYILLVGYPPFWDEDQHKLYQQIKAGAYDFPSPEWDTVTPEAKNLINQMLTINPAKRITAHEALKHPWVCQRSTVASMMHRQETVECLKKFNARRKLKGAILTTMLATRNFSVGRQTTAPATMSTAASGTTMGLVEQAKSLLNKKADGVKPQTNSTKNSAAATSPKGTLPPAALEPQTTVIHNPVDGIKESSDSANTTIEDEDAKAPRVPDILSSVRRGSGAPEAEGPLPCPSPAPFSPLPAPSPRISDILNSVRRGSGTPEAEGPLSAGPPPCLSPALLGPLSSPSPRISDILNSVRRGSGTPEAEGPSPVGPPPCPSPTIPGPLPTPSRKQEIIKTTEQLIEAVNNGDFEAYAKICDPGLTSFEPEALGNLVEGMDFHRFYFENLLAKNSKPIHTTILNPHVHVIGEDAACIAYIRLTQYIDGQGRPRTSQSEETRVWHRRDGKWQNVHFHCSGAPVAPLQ
Sequence of Cannabinoid receptor 1 (P21554 whole entry): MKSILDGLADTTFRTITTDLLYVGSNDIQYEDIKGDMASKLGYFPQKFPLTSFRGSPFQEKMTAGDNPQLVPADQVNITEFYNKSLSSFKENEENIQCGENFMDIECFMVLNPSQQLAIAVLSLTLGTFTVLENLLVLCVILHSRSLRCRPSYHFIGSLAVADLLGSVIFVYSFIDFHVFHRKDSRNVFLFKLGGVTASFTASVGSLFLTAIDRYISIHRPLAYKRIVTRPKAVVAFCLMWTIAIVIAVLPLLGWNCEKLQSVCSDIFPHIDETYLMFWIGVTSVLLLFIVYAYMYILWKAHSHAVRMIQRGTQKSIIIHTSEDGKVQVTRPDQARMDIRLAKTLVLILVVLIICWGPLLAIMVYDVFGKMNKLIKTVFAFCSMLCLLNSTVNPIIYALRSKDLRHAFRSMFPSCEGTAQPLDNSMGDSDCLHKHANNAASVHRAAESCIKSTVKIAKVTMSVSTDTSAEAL
Sequence of Serine/threonine-protein kinase PLK1 (P53350 whole entry): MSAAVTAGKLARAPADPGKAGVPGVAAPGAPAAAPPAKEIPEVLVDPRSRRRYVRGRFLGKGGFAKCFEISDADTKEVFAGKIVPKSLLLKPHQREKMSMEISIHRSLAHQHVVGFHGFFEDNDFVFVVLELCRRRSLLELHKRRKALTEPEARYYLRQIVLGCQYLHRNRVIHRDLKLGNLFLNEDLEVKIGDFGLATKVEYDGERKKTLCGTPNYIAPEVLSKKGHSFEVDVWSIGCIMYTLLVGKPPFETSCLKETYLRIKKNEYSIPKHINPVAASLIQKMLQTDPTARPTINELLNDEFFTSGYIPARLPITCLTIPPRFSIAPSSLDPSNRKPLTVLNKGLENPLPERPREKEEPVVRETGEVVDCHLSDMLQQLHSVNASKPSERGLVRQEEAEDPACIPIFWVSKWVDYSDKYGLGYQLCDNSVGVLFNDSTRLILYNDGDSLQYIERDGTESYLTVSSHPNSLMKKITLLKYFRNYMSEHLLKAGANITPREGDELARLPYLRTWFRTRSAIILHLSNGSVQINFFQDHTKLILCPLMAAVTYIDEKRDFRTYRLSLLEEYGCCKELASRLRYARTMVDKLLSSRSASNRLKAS

CCC(=O)N1CC[C@H](Nc2ncnc3c2CN(c2cnc(OC)c(C(F)(F)F)c2)CC3)C1 [LENIOLISIB]
IC50 (Cannabinoid receptor 1): > 30 µM

CC(=O)Nc1cccc(-n2c(=O)n(C3CC3)c(=O)c3c(Nc4ccc(I)cc4F)n(C)c(=O)c(C)c32)c1
% of control [1]: 97%

Cn1cc(-n2cnc3c(NCc4nc5cc(Cl)c(Cl)cc5[nH]4)nc(N4CCOCC4)nc32)cn1
% of control [2]: 1.25%

CC[C@@H]1[C@H](F)C(=O)N[C@@H]1COc1nccc2cc(C(N)=O)c(OC)cc12 [ZIMLOVISERTIB]
% of inhibition [3]: -1% | % of inhibition [4]: 15.9%

CNC(=O)Nc1ccc(-c2nc(N3CC4CCC(C3)O4)c3cnn(C4CCC5(CC4)OCCO5)c3n2)cc1
% of inhibition [5]: 8%

C=CC(=O)Nc1cc(-n2c(=O)ccc3cnc4ccc(-c5ccc(NS(C)(=O)=O)cc5)cc4c32)ccc1C
% of control ([6]; at 1 µM): 100% | % of control ([6]; at 10 µM): 79%
